# Measurements from publication doi:10.1101/2025.07.01.662521v3, “Ligand-induced Conformational Plasticity of the CTLH E3 Ligase Receptor GID4” (biorxiv, 2026).
# pKd: −log10 of the molar value. Read-outs that look alike come from different tables or passages of the source.
# Columns and labels:
# GID4 [1] = target: T1, GID4 (Homo sapiens, UniProt Q8IVV7); experiment: biochemical; parameters: SPR binding affinity to immobilized biotinylated GID4; conditions: read-out: KD by SPR
# T1 construct: residues 116-300; N-terminal Strep-SUMO-3C-6xHis-Avi, HRV-3C cleaved, Avi-tag kept and biotinylated; E. coli BL21(DE3)
# T1 sequence (Q8IVV7 116-300): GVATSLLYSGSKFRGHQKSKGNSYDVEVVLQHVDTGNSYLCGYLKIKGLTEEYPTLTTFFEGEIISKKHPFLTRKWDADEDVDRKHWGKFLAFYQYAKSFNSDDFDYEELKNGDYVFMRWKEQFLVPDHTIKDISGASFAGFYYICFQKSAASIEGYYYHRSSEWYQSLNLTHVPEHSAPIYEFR
# Procedure: (§1) Following the identification of the binding pocket and the key interactions of the initial fragment, we initiated the synthesis of a series of analogs to explore the structure-activity relationship (SAR) (Table 1). The resulting changes in affinity were evaluated using surface plasmon resonance (SPR) and differential scanning fluorimetry (DSF). […] In the next step, we replaced the 3-Cl group to find an additional potency boost. […] All constructs were verified by sequencing. Protein was expressed by transforming plasmid into chemically competent recombinant E. coli BL21(DE3) strain. E coli was cultured in LB medium supplemented with 50 µg/mL kanamycin in shaker flasks at 37 °C and 160 rpm. Once an optical density at 600 nm (OD600) reached 0.5-0.6, protein expression was induced by an addition of 0.1 mM IPTG.
# GID4 [2] = target: T2, GID4 (Homo sapiens, UniProt Q8IVV7); parameters: Differential scanning fluorimetry, thermal shift of GID4; conditions: binder
# T2 construct: residues 116-300, N-terminal 6xHis-SUMO tag (DSF construct)
# T2 sequence (Q8IVV7 1-300): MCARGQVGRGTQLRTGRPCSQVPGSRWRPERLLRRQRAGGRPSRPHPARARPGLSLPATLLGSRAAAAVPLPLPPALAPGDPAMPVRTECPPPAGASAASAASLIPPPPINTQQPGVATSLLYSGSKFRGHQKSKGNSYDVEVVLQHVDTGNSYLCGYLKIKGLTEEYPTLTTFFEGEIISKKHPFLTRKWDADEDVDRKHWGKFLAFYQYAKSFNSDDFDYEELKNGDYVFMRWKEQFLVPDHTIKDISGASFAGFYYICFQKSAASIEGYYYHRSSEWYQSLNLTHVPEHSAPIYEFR
# Procedure: Following the identification of the binding pocket and the key interactions of the initial fragment, we initiated the synthesis of a series of analogs to explore the structure-activity relationship (SAR) (Table 1). The resulting changes in affinity were evaluated using surface plasmon resonance (SPR) and differential scanning fluorimetry (DSF). […] In the next step, we replaced the 3-Cl group to find an additional potency boost. […] MATERIALS AND METHODS Recombinant Protein Expression and Purification GID4 Expression and Purification Human Glucose-induced degradation protein 4 homolog (Gid4, UniProt ID: Q8IVV7) residues 124-289 were cloned into a vector to generate a N-terminal 6xHis-SUMO-tag for crystallography studies, residues 116-300 were cloned into a vector to generate a N-terminal 6xHis-SUMO-tag for DSF studies and residues 116-300 were cloned into a vector to generate a N-terminal Strep-SUMO-3C-6xHis-AVI-tag for SPR experiments. All constructs were verified by sequencing. Protein was expressed by transforming plasmid into chemically competent recombinant E. coli BL21(DE3) strain. E coli was cultured in LB medium supplemented with 50 µg/mL kanamycin in shaker flasks at 37 °C and 160 rpm. Once an optical density at 600 nm (OD600) reached 0.5-0.6, protein expression was induced by an addition of 0.1 mM IPTG.
# GID4 [3] = target: T1, GID4; experiment: SPR, steady-state affinity; format: binding
# Description: SPR, steady-state affinity on GID4
# GID4 [4] = target: T1, GID4; experiment: SPR; format: binding
# GID4 [5] = target: T1, GID4; parameters: SPR binding affinity to immobilized biotinylated GID4; conditions: binder
# Procedure: as §1
# BRD4 = BRD4 (Homo sapiens, UniProt O60885); parameters: SPR binary binding affinity to BRD4; conditions: binder
# Description: (§2) Following the confirmation of cellular target engagement, we assessed the ability of GID4 to induce targeted protein degradation by synthesizing a panel of GID4-BRD4 bifunctional compounds. We utilized our lead ligand 14 together with a well-known BRD4 ligand JQ1, exploring a range of standard linkers with varying exit vectors and lengths, including rigid alkyl, and flexible PEG (2x, or 4xPEG) (Figure 6A). […] We assessed binary interactions with GID4 and BRD4, as well as the ternary complex formation by SPR and HTRF (Figure 6 and Table S2). All bifunctional compounds, except for 26, retained high affinity for BRD4 (K ^BRD4 =0.006-0.02 µM). […] Crucially, all degraders equipped with the active JQ1 warhead mediated ternary complex formation between GID4 and BRD4 (Figure 6 B-C). We further utilized NanoBRET assay to confirm BRD4 engagement, in both intact and lysed HEK293T cells (Table S2). […] This discrepancy indicates potential permeability limitations or active efflux of the bifunctional molecules. Despite successful BRD4 engagement, none of the degraders stabilized GID4 in the intracellular engagement assay, resulting in negative ΔTagg values (Table S2). This was consistent across all compounds, independent of linker length, composition, or exit vector. Consequently, no degradation of BRD4 was observed (Figures S11–S13), highlighting that while ternary complex formation is achievable in vitro, the physicochemical properties of these GID4-based PROTACs currently limit their intracellular efficacy.
# HiBiT-GID4(FL) = target: T3, HiBiT-GID4(FL) (Homo sapiens, UniProt Q8IVV7); parameters: species or system HEK293T; HiBiT cellular thermal shift of full-length GID4, luminescence, delta Tagg; conditions: binder
# T3 construct: full length, N-terminal HiBiT tag, stably expressed in HEK293T (piggyBac)
# T3 sequence (Q8IVV7 1-300): T2 sequence (Q8IVV7 1-300)
# Description: as §2
Structure (SMILES),pKd (GID4 [1]),ΔTm by DSF (°C) (GID4 [2]),further results
COC1CCCN(C(=O)c2cc(-c3cc(F)cc(N=C(N)N4CCC(C)(C)CC4)c3)oc2C)C1 (racemic) [compound 19],7.30,7.1 ± 0.01 °C,
COCCOCCC1CCCN(C(=O)c2cc(-c3cc(F)cc(N=C(N)N4CCC(C)(C)CC4)c3)oc2C)C1 (racemic) [compound 21],7.30,6.8 ± 0.04 °C,
CC(=O)N1CCN(CC2CCCN(C(=O)c3cc(-c4cc(F)cc(N=C(N)N5CCC(C)(C)CC5)c4)oc3C)C2)CC1 (racemic) [compound 23],7.05,6.4 ± 0.02 °C,
NC(=Nc1ccccc1)N1CCCCC1 [compound 1],,1.0 ± 0.06 °C,pKd (GID4 [3]): 4.10
NC(=Nc1cccc(Cl)c1)N1CCCCC1 [compound 2],,1.6 ± 0.13 °C,pKd (GID4 [4]; read-out: KD): 4.64
NC(=Nc1cccc(F)c1)N1CCCCC1 [compound 3],,3.3 ± 0.06 °C,pKd (GID4 [4]; read-out: KD): 4.92
NC(=Nc1cc(F)cc(Cl)c1)N1CCCCC1 [compound 4],,2.8 ± 0.08 °C,pKd (GID4 [4]; read-out: KD): 5.09
CC1CCCCN1C(N)=Nc1cc(F)cc(Cl)c1 (stereo not shown) [compound 5],,3.3 ± 0.04 °C,pKd (GID4 [4]; read-out: KD): 5.54
CC1CCN(C(N)=Nc2cc(F)cc(Cl)c2)CC1 [compound 6],,3.2 ± 0.08 °C,pKd (GID4 [4]; read-out: KD): 5.53
CC1CCCN(C(N)=Nc2cc(F)cc(Cl)c2)C1 (stereo not shown) [compound 7],,3.3 ± 0.03 °C,pKd (GID4 [4]; read-out: KD): 5.39
Cc1ccc(-c2cc(F)cc(N=C(N)N3CCCCC3C)c2)o1 (stereo not shown) [compound 8],,4.3 ± 0.05 °C,pKd (GID4 [4]; read-out: KD): 6.03
Cc1ccc(-c2cc(F)cc(N=C(N)N3CCC(C)CC3)c2)o1 [compound 9],,,"pKd (GID4 [4]; PBS pH 7.4, 0.05% P-20, 1 mM DTT, 1% DMSO, biotinylated GID4 immobilised on SA chip, read-out: KD): 6.14"
CNC(=O)c1cc(-c2cc(F)cc(N=C(N)N3CCC(C)(C)CC3)c2)oc1C [compound 11],6.51,4.8 ± 0.07 °C,
Cc1oc(-c2cc(F)cc(N=C(N)N3CCC(C)(C)CC3)c2)cc1C(=O)N(C)C [compound 12],7.22,6.9 ± 0.18 °C,
Cc1oc(-c2cc(F)cc(N=C(N)N3CCC(C)(C)CC3)c2)cc1C(=O)Nc1ccccc1 [compound 13],5.84,3.9 ± 0.03 °C,
Cc1oc(-c2cc(F)cc(N=C(N)N3CCC(C)(C)CC3)c2)cc1C(=O)N1CCCCC1 [compound 14],,7.7 ± 0.05 °C,pKd (GID4 [4]; read-out: KD^GID4): 7.52
"Cc1oc(-c2cc(F)cc(/N=C(/N)N3CCC(C)(C)CC3)c2)cc1C(=O)N1CCN(C)CC1 [compound 15, 15]",6.92,5.9 ± 0.08 °C,
"Cc1oc(-c2cc(F)cc(/N=C(/N)N3CCC(C)(C)CC3)c2)cc1C(=O)N1CCOCC1 [compound 16, 16]",7.05,6.2 ± 0.01 °C,
COC1CCN(C(=O)c2cc(-c3cc(F)cc(N=C(N)N4CCC(C)(C)CC4)c3)oc2C)CC1 [compound 18],6.89,"7.1 ± 0,04 °C",
COCCOCCC1CCN(C(=O)c2cc(-c3cc(F)cc(N=C(N)N4CCC(C)(C)CC4)c3)oc2C)CC1 [compound 20],7.30,"6.5 ± 0,03 °C",
CC(=O)N1CCN(CC2CCN(C(=O)c3cc(-c4cc(F)cc(N=C(N)N5CCC(C)(C)CC5)c4)oc3C)CC2)CC1 [compound 22],6.85,5.9 ± 0.04 °C,
"Cc1oc(-c2cc(F)cc(/N=C(/N)N3CCC(C)(C)CC3)c2)cc1C(=O)N1CCC(CN2CCN(C(=O)C[C@@H]3N=C(c4ccc(Cl)cc4)c4c(sc(C)c4C)-n4c(C)nnc43)CC2)CC1 [compound 24, 24]",,,pKd (GID4 [5]): 6.49; pKd (BRD4): 7.89; GID4 intracellular target engagement ΔTagg [ºC] (HiBiT-GID4(FL)): -1.7 ± 1.2 °C
"Cc1oc(-c2cc(F)cc(/N=C(/N)N3CCC(C)(C)CC3)c2)cc1C(=O)N1CCCC(CN2CCN(C(=O)C[C@@H]3N=C(c4ccc(Cl)cc4)c4c(sc(C)c4C)-n4c(C)nnc43)CC2)C1 (stereo partly shown) [compound 25, 25]",,,pKd (GID4 [5]): 6.30; pKd (BRD4): 7.70; GID4 intracellular target engagement ΔTagg [ºC] (HiBiT-GID4(FL)): -1.4 ± 0.3 °C
Cc1oc(-c2cc(F)cc(/N=C(/N)N3CCC(C)(C)CC3)c2)cc1C(=O)N1CCC(CN2CCN(C(=O)C[C@H]3N=C(c4ccc(Cl)cc4)c4c(sc(C)c4C)-n4c(C)nnc43)CC2)CC1 [compound 26],,,"pKd (GID4 [4]; PBS pH 7.4, 0.05% P-20, 1 mM DTT, 1% DMSO, biotinylated GID4 immobilised on SA chip, read-out: KD^GID4): 6.20; GID4 intracellular target engagement ΔTagg [ºC] (HiBiT-GID4(FL)): -2 ± 0.6 °C"
"Cc1oc(-c2cc(F)cc(/N=C(/N)N3CCC(C)(C)CC3)c2)cc1C(=O)N1CCCC(OCCOCCOCCNC(=O)C[C@@H]2N=C(c3ccc(Cl)cc3)c3c(sc(C)c3C)-n3c(C)nnc32)C1 (stereo partly shown) [compound 28, 28]",,,pKd (BRD4): 7.80; GID4 intracellular target engagement ΔTagg [ºC] (HiBiT-GID4(FL)): -2.6 ± 3.7 °C
"Cc1oc(-c2cc(F)cc(/N=C(/N)N3CCC(C)(C)CC3)c2)cc1C(=O)N1CCC(OCCOCCOCCOCCOCCNC(=O)C[C@@H]2N=C(c3ccc(Cl)cc3)c3c(sc(C)c3C)-n3c(C)nnc32)CC1 [compound 29, 29]",,,pKd (BRD4): 8.22; GID4 intracellular target engagement ΔTagg [ºC] (HiBiT-GID4(FL)): 0.1 ± 0.4 °C
"Cc1oc(-c2cc(F)cc(/N=C(/N)N3CCC(C)(C)CC3)c2)cc1C(=O)N1CCCC(OCCOCCOCCOCCOCCNC(=O)C[C@@H]2N=C(c3ccc(Cl)cc3)c3c(sc(C)c3C)-n3c(C)nnc32)C1 (stereo partly shown) [compound 30, 30]",,,pKd (BRD4): 8.22; GID4 intracellular target engagement ΔTagg [ºC] (HiBiT-GID4(FL)): -0.3 ± 1.0 °C
